Laboratory results published in PubChem BioAssay AID540338 (Southern Research Specialized Biocontainment Screening …, 2011).
Activity calls are given as the source filed them.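 The calls were made as follows: active = cell viability below 70% of untreated cell signal at any tested dose; inactive = the rest.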

System: HEp-2 viability, luminescence (CellTiter-Glo)
Assay: viability loss in uninfected HEp-2 cells – cell-based, synthesized compounds, set 12, cytotoxicity control for RSV antiviral project, dose response (AID 540338)

SMILES: COCCCNC(=O)c1ccc(Cn2c(=O)c3ccccc3n(Cc3ccc(C)cc3)c2=O)cc1
- CC50: 69 µM

SMILES: COCCCNC(=O)c1ccc(Cn2c(=O)c3ccccc3n(CC3CCCCC3)c2=O)cc1
- CC50: > 200 µM (inactive)

SMILES: COCCCNC(=O)c1ccc(Cn2c(=O)c3ccccc3n(CCc3ccc(C(F)(F)F)cc3)c2=O)cc1
- CC50: 116 µM

SMILES: COCCCNC(=O)c1ccc(Cn2c(=O)c3ccccc3n(CCc3ccc(Br)cc3)c2=O)cc1
- CC50: < 1.6 µM

SMILES: COCCCNC(=O)c1ccc(Cn2c(=O)c3ccccc3n(Cc3ccccn3)c2=O)cc1
- CC50: 16 µM

SMILES: COCCCNC(=O)c1ccc(Cn2c(=O)c3ccccc3n(Cc3cccnc3)c2=O)cc1
- CC50: 8 µM

SMILES: COCCCNC(=O)c1ccc(Cn2c(=O)c3ccccc3n(CCc3ccc(C)cc3)c2=O)cc1
- CC50: < 1.6 µM
